Like-named read-outs stand apart in the source and are kept apart here.
Columns and labels:
[1] = molecular target: PBP5 (PBP5_37-678); assay: NMR chemical shift perturbation titration (2D [1H,15N] TROSY, 2D [1H,13C] ILV methyl HMQC) of stem peptides / PG into PBP5; type: binding, Enterococcus faecium; conditions: NH CSP titration up to 1:80 PBP5:SP1, not saturated: KD overestimated (upper bound); 10 mM MES pH 5.8, 25 mM NaCl, 308 K; read-out: KD, mean±std of residue-specific values
Description: Data was processed using Topspin 4.1.4 (Bruker) and analyzed using NMRFAM-SPARKY 1.3 and Poky (build number 20240829)[20],[21]. The sequence-specific backbone assignment of PBP5 is publicly available at BMRBID 51690.
SPs (SP1 to SP7) were titrated into 0.5 mM (^2H,^15N)-labeled and 0.1 mM (^2H,^15N)/^13C ILV labeled PBP5 at molar ratios of 0:1, 5:1, 10:1, 20:1, 40:1, 60:1, and 80:1 (stem peptide/SP:PBP5; molar ratios). 2D [^1H,^15N] TROSY or 2D [^1H,^13C] HMQC spectra were recorded for each titration point. SPs were solubilized in NMR buffer. Chemical shift perturbations (Δδ) between PBP5 and SP bound PBP5 spectra were calculated using Eq. 1,1 Δδppm=ΔδH^2+ΔδX/Y^2 where, X is ^15N or ^13C and Y is the constant i.e., 10 for ^15N and 4 for ^13C.
Residues with significant CSPs were identified by calculating the standard deviation of all CSPs (σ), then excluding any CSPs larger than average+2σ, recalculating σ as a new corrected σ0, and then repetitively removing CSPs above 2σ0 until no additional CSPs can be removed. CSPs above ≥2σ2 was the statistical threshold for ^1H/^15N backbone CSP analysis and ≥2xσ1 for ^1H/^13C methyl ILV data for the interaction of SP1 with PBP5. The same threshold values were used for all other peptides to allow for direct comparison with the SP1/PBP5 interaction. The identical significance analysis was also performed for PenG/ceftaroline saturated PBP5 (1:8 molar ratio of PBP5 to β-lactam antibiotics was used to ensure saturation of an extended time period needed for the SP titrations) SP interaction studies; CSPs above ≥2σ3 was the statistical threshold for ^1H/^15N backbone CSP analysis and ≥2xσ2 for ^1H/^13C methyl ILV data to identify all residues with a statistically significant change in its chemical shift upon SP interaction.
Residue specific KD values were calculated by using Eq. 2[23],2 CSPobs=CSPmax/2PP+S+KD−P+S+KD^2−4[S][P] where P and S are the concentration of PBP5 and SP1, respectively. CSPobs is the experimentally observed chemical shift value and CSPmax is the largest experimentally observed chemical shift value of the residue. […] The lack of saturation was due to the limited amount of available SP peptide due to their difficult synthesis. Residues used for KD calculation were common residues with statistically significant CSPs in the interaction studies of SP1 and SP2 with PBP5 at a 1:80 ratio.

[2] = system: PBP4; conditions: for STD amplification factor, 2000: protein:peptide 1:100, 2 s saturation
Description: STD NMR experiments were carried out on 0.02 mM unlabeled PBP5T485, PBP4, and PBP2B in NMR buffer (10 mM MES pH 5.8, 25 mM NaCl) at 308 K with the peptides (SP1, SP2, SP4, SP5 and SP6 with PBP5, SP2 also with PBP4 and PBP2B) at 1:100 PBP5:peptide molar ratios using a pseudo 2D pulse sequence that leverages a shaped pulse train for saturation and selected water suppression by excitation sculpting with gradients. All STD experiments were performed at 800 MHz for best resolution and least signal overlap. Total saturation time for STD measurements was 2 s. A 2 s recycling delay, and 64 scans were used for all STD experiments. Selective protein saturation was achieved by setting the on-resonance frequency on PBP5 methyl peaks at 0.73 ppm. For the off-resonance (reference) spectrum, the irradiation frequency was shifted to −40 ppm. […] LTotal/PTotal is the ligand excess relative to a constant protein concentration.
For a uniform analysis, we normalized the STD amplification factor by using the highest STD amplification factor in the SP1:PBP5 analysis and using the same STD amplification factor to normalize other SPs (SP2-6) to allow for a rigorous comparison. For the analysis of the STD NMR data only data from non-exchangeable protons (CH groups) were utilized. Overlapped peaks were completely excluded from the analysis.

D-Lac-L-Ala-D-iGln-L-Lys(D-iAsn)-D-Ala-D-Ala [SP1]
Kd [1]: ~4 mM

D-Lac-L-Ala-D-iGln-L-Lys(D-iAsn) [SP2]
STD % to SP1 ([2]; 1H DLacβ): 28.7108% | STD amplification factor as fraction of highest SP1:PBP5 value ([2]; 1H DLacβ): 0.2871 | STD amplification factor, 2000 ([2]; 1H DLacβ): 7.726 | STD % to SP1 ([2]; 1H DQ2β (first listed)): 57.5161% | STD amplification factor as fraction of highest SP1:PBP5 value ([2]; 1H DQ2β (first listed)): 0.5752 | STD amplification factor, 2000 ([2]; 1H DQ2β (first listed)): 15.4766 | STD % to SP1 ([2]; 1H DQ2β (second listed)): 62.3639% | STD amplification factor as fraction of highest SP1:PBP5 value ([2]; 1H DQ2β (second listed)): 0.6236 | STD amplification factor, 2000 ([2]; 1H DQ2β (second listed)): 16.7811 | STD % to SP1 ([2]; 1H DQ2γ): 18.9556% | STD amplification factor as fraction of highest SP1:PBP5 value ([2]; 1H DQ2γ): 0.1896 | STD amplification factor, 2000 ([2]; 1H DQ2γ): 5.101 | STD % to SP1 ([2]; 1H K3α): 41.8044% | STD amplification factor as fraction of highest SP1:PBP5 value ([2]; 1H K3α): 0.418 | STD amplification factor, 2000 ([2]; 1H K3α): 11.2489 | STD % to SP1 ([2]; 1H K3β): 89.5852% | STD amplification factor as fraction of highest SP1:PBP5 value ([2]; 1H K3β): 0.8959 | STD amplification factor, 2000 ([2]; 1H K3β): 24.1059 | STD % to SP1 ([2]; 1H K3γ): 46.145% | STD amplification factor as fraction of highest SP1:PBP5 value ([2]; 1H K3γ): 0.4615 | STD amplification factor, 2000 ([2]; 1H K3γ): 12.4169 | STD % to SP1 ([2]; 1H K3δ): 58.6188% | STD amplification factor as fraction of highest SP1:PBP5 value ([2]; 1H K3δ): 0.5862 | STD amplification factor, 2000 ([2]; 1H K3δ): 15.7734 | STD % to SP1 ([2]; 1H K3ε): 16.4854% | STD amplification factor as fraction of highest SP1:PBP5 value ([2]; 1H K3ε): 0.1649 | STD amplification factor, 2000 ([2]; 1H K3ε): 4.436 | STD % to SP1 ([2]; 1H LA1α): 41.4108% | STD amplification factor as fraction of highest SP1:PBP5 value ([2]; 1H LA1α): 0.4141 | STD amplification factor, 2000 ([2]; 1H LA1α): 11.143 | STD % to SP1 ([2]; 1H LA1β): 30.5144% | STD amplification factor as fraction of highest SP1:PBP5 value ([2]; 1H LA1β): 0.3051 | STD amplification factor, 2000 ([2]; 1H LA1β): 8.211 | STD % to SP1 ([2]; 1H iNα,DQ2α): 21.1266% | STD amplification factor as fraction of highest SP1:PBP5 value ([2]; 1H iNα,DQ2α): 0.2113 | STD amplification factor, 2000 ([2]; 1H iNα,DQ2α): 5.685 | STD % to SP1 ([2]; 1H iNβ): 26.2423% | STD amplification factor as fraction of highest SP1:PBP5 value ([2]; 1H iNβ): 0.2624 | STD amplification factor, 2000 ([2]; 1H iNβ): 7.061
